Our source for the AC50 values is ChEMBL document CHEMBL5291721, “A preclinical secondary pharmacology resource illuminates target-adverse drug reaction associations of marketed drugs” (Nat Commun, 2023).

In experiment [1] the target is T1, Histamine H3 receptor (Homo sapiens, UniProt Q9Y5N1).
For experiment [2], the target named is T2, Alpha-1A adrenergic receptor (Homo sapiens, UniProt P35348).
T2 sequence (P35348 whole entry): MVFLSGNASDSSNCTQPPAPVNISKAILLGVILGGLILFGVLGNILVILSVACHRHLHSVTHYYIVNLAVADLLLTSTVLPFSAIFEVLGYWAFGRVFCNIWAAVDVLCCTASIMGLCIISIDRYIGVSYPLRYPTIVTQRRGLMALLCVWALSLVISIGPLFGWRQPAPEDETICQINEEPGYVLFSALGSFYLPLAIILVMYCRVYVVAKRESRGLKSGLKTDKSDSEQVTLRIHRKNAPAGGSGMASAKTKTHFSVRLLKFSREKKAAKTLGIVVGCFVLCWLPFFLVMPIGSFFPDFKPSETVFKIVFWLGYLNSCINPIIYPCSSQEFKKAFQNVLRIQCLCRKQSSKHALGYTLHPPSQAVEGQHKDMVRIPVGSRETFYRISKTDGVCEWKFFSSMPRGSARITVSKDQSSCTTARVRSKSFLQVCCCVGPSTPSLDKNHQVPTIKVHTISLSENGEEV
It is filed as functional, cell-based.

Experiment [3] addresses Sodium-dependent serotonin transporter (Homo sapiens, UniProt P31645).
Experiment [4] deals with T1, Histamine H3 receptor. This is another data set of the same source.
Experiment [5] has as its target T3, Prostaglandin G/H synthase 1 (Homo sapiens, UniProt P23219). It is filed as functional.
The next experiment deals with Cannabinoid receptor 1 (Homo sapiens, UniProt P21554). It is filed as functional, cell-based.
Experiment [6] has as its target T3, Prostaglandin G/H synthase 1. It counts as functional. The source holds these as a separate data set.
A further experiment concerns the target D(1A) dopamine receptor (Homo sapiens, UniProt P21728).
The target in experiment [7] is T4, Amine oxidase [flavin-containing] A (Homo sapiens, UniProt P21397).
T4 sequence (P21397 whole entry): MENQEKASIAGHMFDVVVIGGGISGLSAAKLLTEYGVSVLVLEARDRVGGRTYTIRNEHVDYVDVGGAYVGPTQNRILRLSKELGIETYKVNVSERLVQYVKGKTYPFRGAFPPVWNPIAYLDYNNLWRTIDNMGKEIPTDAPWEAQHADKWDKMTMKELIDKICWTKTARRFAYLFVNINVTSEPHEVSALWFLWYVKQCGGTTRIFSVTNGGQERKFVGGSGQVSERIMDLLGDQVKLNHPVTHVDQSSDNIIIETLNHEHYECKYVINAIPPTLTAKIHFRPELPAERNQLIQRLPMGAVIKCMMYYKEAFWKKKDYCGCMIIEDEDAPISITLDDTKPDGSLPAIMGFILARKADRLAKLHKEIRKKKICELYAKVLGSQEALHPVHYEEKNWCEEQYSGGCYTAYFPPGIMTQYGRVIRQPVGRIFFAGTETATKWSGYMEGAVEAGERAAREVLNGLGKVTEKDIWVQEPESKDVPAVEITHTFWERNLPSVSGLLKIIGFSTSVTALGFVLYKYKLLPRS
It is filed as functional.

For experiment [8], the target named is T5, 5-hydroxytryptamine receptor 1A (Homo sapiens, UniProt P08908).
T5 sequence (P08908 whole entry): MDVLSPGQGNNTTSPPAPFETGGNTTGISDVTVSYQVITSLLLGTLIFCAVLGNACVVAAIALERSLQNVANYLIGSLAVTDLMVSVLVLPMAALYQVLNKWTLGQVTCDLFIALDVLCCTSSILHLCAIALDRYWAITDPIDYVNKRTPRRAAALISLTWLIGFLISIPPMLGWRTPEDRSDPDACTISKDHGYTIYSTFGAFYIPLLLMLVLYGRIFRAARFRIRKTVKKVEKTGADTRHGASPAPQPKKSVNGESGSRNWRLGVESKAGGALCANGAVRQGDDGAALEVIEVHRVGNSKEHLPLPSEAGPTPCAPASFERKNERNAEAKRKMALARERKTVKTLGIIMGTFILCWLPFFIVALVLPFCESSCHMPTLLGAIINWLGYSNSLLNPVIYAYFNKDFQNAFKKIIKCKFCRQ

Experiment [9] deals with T6, Muscarinic acetylcholine receptor M2 (Homo sapiens, UniProt P08172).
T6 sequence (P08172 whole entry): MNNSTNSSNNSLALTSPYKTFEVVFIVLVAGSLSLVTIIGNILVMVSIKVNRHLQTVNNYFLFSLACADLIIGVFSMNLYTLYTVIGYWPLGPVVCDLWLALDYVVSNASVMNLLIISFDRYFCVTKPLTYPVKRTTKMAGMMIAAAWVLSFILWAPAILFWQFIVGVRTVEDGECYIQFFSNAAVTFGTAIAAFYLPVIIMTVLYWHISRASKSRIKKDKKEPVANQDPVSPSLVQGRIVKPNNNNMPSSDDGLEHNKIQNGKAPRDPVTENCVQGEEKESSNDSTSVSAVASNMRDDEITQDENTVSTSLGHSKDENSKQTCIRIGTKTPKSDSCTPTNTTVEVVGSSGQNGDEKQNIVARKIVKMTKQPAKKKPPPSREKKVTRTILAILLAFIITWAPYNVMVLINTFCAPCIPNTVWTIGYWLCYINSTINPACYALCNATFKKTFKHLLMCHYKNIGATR

In experiment [10] the target is 5-hydroxytryptamine receptor 2B (Homo sapiens, UniProt P41595). It counts as functional, cell-based.
Experiment [11] has as its target T7, Neuropeptide Y receptor type 1 (Homo sapiens, UniProt P25929).
T7 sequence (P25929 whole entry): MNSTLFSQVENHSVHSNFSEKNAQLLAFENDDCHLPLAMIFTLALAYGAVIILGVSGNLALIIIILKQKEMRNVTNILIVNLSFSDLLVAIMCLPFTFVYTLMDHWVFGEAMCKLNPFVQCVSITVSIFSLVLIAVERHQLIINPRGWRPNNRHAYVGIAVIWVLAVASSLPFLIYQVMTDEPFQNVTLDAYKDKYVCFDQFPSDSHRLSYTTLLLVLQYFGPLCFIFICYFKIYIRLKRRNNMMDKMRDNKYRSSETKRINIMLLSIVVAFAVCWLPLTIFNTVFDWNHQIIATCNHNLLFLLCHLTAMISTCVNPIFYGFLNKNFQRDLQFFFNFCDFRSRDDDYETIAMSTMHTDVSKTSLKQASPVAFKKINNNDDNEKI

Experiment [12] deals with Beta-2 adrenergic receptor (Homo sapiens, UniProt P07550).
Experiment [13] deals with Voltage-dependent L-type calcium channel subunit alpha-1C (Rattus norvegicus, UniProt P22002). It counts as functional.

Bounds are passed on as bounds.
Also: assay procedure not described here.

D(1A) dopamine receptor, sequence (P21728 whole entry): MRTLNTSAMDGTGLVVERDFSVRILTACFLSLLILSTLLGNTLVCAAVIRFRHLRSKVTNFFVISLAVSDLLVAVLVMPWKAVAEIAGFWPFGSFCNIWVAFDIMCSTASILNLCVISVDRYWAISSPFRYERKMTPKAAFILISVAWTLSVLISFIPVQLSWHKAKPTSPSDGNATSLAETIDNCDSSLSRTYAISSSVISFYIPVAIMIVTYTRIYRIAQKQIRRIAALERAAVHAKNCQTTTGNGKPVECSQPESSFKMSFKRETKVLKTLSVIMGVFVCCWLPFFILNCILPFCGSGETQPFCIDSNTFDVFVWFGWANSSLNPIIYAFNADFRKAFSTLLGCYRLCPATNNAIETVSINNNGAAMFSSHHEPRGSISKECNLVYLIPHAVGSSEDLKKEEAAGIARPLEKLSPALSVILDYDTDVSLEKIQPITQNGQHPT
T1 sequence (Q9Y5N1 whole entry): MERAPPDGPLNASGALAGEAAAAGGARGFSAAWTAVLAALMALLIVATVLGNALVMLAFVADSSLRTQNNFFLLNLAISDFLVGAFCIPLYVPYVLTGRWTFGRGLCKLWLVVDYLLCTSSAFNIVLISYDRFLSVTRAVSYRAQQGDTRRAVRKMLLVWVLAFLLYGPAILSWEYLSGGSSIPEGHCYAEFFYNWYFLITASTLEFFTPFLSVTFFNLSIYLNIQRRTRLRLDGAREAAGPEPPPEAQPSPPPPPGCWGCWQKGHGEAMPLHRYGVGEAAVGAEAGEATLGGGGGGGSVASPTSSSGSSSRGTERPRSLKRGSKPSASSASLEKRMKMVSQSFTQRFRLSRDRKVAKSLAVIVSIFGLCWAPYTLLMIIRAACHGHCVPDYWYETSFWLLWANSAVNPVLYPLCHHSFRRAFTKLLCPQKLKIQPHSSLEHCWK
T3 sequence (P23219 whole entry): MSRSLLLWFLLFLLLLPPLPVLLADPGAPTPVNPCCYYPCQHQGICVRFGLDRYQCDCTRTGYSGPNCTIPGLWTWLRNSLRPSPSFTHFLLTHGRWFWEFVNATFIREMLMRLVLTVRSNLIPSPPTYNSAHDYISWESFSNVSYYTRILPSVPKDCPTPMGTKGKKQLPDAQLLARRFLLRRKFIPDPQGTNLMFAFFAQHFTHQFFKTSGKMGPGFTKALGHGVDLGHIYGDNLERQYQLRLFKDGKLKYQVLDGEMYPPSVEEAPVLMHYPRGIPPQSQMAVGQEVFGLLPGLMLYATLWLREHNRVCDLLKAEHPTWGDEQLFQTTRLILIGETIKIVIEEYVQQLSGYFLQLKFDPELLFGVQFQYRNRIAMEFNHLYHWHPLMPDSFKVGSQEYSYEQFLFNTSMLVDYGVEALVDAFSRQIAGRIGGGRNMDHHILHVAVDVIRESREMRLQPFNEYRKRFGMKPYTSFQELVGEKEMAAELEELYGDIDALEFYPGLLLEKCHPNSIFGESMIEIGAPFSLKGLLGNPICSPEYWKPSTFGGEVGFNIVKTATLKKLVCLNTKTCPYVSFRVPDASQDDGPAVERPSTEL
Cannabinoid receptor 1, sequence (P21554 whole entry): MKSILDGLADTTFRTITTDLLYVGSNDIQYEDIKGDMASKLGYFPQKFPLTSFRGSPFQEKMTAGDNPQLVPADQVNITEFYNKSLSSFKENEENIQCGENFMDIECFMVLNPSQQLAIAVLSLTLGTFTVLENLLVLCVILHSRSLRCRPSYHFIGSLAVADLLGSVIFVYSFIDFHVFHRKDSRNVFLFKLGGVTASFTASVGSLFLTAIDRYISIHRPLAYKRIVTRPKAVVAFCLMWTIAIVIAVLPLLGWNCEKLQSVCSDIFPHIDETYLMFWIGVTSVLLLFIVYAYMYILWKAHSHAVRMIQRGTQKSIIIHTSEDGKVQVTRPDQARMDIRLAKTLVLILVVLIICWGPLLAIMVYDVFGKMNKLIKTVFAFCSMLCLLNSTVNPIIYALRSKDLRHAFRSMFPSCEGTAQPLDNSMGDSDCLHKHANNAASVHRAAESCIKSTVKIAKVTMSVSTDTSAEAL
Sodium-dependent serotonin transporter, sequence (P31645 whole entry): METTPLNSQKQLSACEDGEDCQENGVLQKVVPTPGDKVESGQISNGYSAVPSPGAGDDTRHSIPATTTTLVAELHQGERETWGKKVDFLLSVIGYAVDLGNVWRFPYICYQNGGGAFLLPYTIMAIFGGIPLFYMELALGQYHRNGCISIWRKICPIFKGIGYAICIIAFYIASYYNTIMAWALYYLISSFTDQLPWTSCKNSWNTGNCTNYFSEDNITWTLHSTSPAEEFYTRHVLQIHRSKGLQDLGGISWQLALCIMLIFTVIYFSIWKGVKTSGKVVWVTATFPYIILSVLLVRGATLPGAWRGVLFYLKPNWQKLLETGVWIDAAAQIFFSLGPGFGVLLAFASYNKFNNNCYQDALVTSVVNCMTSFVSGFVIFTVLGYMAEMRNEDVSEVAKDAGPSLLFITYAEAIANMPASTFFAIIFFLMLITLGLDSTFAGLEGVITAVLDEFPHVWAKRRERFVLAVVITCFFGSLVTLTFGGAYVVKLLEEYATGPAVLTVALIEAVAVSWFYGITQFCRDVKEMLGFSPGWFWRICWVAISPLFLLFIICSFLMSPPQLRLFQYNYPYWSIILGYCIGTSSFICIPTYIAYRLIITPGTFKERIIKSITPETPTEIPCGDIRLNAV
5-hydroxytryptamine receptor 2B, sequence (P41595 whole entry): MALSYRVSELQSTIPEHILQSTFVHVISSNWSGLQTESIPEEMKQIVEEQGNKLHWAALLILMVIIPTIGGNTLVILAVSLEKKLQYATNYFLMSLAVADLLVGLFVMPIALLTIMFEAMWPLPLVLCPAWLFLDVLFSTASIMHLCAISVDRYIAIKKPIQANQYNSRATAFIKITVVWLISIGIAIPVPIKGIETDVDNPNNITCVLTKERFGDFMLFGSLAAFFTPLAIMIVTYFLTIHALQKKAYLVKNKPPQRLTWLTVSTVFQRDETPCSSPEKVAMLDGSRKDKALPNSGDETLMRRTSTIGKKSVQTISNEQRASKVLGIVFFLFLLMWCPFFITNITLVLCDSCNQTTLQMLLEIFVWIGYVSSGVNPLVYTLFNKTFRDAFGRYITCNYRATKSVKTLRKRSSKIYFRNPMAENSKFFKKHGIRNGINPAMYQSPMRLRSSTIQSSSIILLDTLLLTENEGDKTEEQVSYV
Beta-2 adrenergic receptor, sequence (P07550 whole entry): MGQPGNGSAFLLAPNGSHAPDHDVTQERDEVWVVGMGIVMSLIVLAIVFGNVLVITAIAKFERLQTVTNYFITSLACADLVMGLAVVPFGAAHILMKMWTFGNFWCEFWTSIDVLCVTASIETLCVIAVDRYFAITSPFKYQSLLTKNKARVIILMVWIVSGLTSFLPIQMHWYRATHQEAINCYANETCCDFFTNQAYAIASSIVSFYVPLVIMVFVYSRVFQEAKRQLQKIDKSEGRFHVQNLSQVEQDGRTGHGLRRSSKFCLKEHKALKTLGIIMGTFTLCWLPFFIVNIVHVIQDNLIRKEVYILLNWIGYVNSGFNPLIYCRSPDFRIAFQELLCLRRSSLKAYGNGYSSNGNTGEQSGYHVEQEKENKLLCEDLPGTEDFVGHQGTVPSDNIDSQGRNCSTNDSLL

For orientation: AC50 means the midpoint of the concentration-response curve, whichever way the signal moves. Turning to `O=C(OCC(O)CO)c1ccccc1Nc1ccnc2cc(Cl)ccc12` (centres undefined) [GLAFENINE], the AC50 at Histamine H3 receptor [1] is > 30 µM; in experiment [2], 13.5 µM; in experiment [3], > 30 µM; on Histamine H3 receptor [4], > 30 µM; in experiment [5] it was 4.63 µM; on Cannabinoid receptor 1, > 30 µM. Besides, the AC50 is > 30 µM in experiment [6]; > 30 µM at D(1A) dopamine receptor; > 30 µM in [7]; > 30 µM in [8]; 4.3 µM in experiment [9]; > 30 µM in experiment [10].

On to `CC[C@H]1[C@@H](O)[C@@H]2[C@H](CC[C@]3(C)[C@@H]([C@H](C)CCC(=O)O)CC[C@@H]23)[C@@]2(C)CC[C@@H](O)C[C@@H]12` [OBETICHOLIC ACID], for which the AC50 (on Histamine H3 receptor [1]; in [2]; in [3]; in experiment [11]; at Histamine H3 receptor [4]; in experiment [5]) was > 30 µM each time. The AC50 (on Cannabinoid receptor 1; in experiment [6]; in experiment [12]; at D(1A) dopamine receptor; in experiment [7]; in experiment [8]) was > 30 µM in each case. Moreover, the AC50 in [9], in experiment [10] and in experiment [13] was > 30 µM each time.

Consider `O=C(Cc1ccc(-c2ccccc2)cc1)Nc1ccccn1` [DIFENPIRAMIDE], for which the AC50 was > 10 µM in experiment [2]; > 30 µM in [3]; > 30 µM at Histamine H3 receptor [4]; > 30 µM in experiment [5]; > 30 µM on Cannabinoid receptor 1; > 30 µM in experiment [6]. The AC50 (on D(1A) dopamine receptor; in experiment [7]; in experiment [8]; in [9]; in experiment [10]) was > 30 µM in each case.

On to `COCCCN1CCC(NC(=O)c2cc(Cl)c(N)c3c2OCC3)CC1` [PRUCALOPRIDE], for which the half-maximal activity concentration (AC50) (at Histamine H3 receptor [1]; in experiment [2]; in experiment [3]; at Histamine H3 receptor [4]; in experiment [5]; at Cannabinoid receptor 1) was > 30 µM throughout. In addition, the AC50 in experiment [6] is 23.6 µM; at D(1A) dopamine receptor it was > 30 µM; in experiment [7] it was > 30 µM; in [8], 6.1 µM; in experiment [9] it was > 30 µM; in [10] it was > 30 µM.

For `C=CCc1ccccc1OCC(O)CNC(C)C` (centres undefined) [ALPRENOLOL], the AC50 at Histamine H3 receptor [1] is > 30 µM; in experiment [2], > 0.3 µM; in experiment [3], > 0.3 µM; in experiment [11], > 30 µM; at Histamine H3 receptor [4] it was > 0.3 µM; in experiment [5], > 0.3 µM. Also, the AC50 was > 30 µM on Cannabinoid receptor 1; > 0.3 µM in experiment [6]; > 0.3 µM at D(1A) dopamine receptor; > 0.3 µM in experiment [7]; 0.0146 µM in [8]; > 0.3 µM in experiment [9]. The AC50 was > 0.3 µM in [10] and > 30 µM in experiment [13].

Regarding `CC(C)(C)NC[C@H](O)COc1ccccc1C1CCCC1` [PENBUTOLOL], the AC50 is 2.54 µM in experiment [2]; 5.53 µM in [3]; > 30 µM on Histamine H3 receptor [4]; 26.4 µM in experiment [5]; 21.1 µM in experiment [6]; 27.8 µM on D(1A) dopamine receptor. For the same compound, the AC50 in [7] is > 30 µM; in experiment [8], 0.0036 µM; in experiment [9] it was > 30 µM; in [10], > 30 µM.

On to `N[C@@H](C(=O)N[C@@H]1C(=O)N2C(C(=O)O)=C(Cl)CC[C@H]12)c1ccccc1` [LORACARBEF ANHYDROUS], for which the AC50 (in [2]; in experiment [3]; at Histamine H3 receptor [4]; in [5]; in experiment [6]; at D(1A) dopamine receptor) was > 30 µM each time. The AC50 in [7], in experiment [8], in experiment [9] and in experiment [10] was > 30 µM each time.

Regarding `CN(C)[C@@H](c1cccc(O)c1)[C@H]1CCCC[C@H]1O` [CIRAMADOL], the AC50 was > 30 µM in experiment [2]; 27.5 µM in experiment [3]; > 30 µM at Histamine H3 receptor [4]; > 10 µM in experiment [5]; > 30 µM in experiment [6]; > 30 µM on D(1A) dopamine receptor. The AC50 in [7], in experiment [8], in experiment [9] and in experiment [10] was > 30 µM throughout.

In the case of `COC(c1ccccc1)(c1ccccc1)[C@H](Oc1nc(C)cc(C)n1)C(=O)O` [AMBRISENTAN], the AC50 (in [2]; in experiment [3]; on Histamine H3 receptor [4]; in [5]; in [6]; at D(1A) dopamine receptor) was > 30 µM throughout. For the same compound, the AC50 in [7], in experiment [8], in experiment [9] and in experiment [10] was > 30 µM throughout.

For `CCOC(=O)[C@H](CCc1ccccc1)N[C@@H](C)C(=O)N1[C@H](C(=O)O)C[C@H]2CCCC[C@@H]21` [TRANDOLAPRIL], the AC50 (in experiment [2]; in experiment [3]; on Histamine H3 receptor [4]; in experiment [5]; in experiment [6]; on D(1A) dopamine receptor) was > 30 µM in each case. Further, the AC50 in experiment [7], in experiment [8], in experiment [9] and in [10] was > 30 µM each time.
